Experimental data reported in patent US20200404919A1, “USE OF HETEROARYL-TRIAZOLE AND HETEROARYL-TETRAZOLE COMPOUNDS AS PESTICIDES IN PLANT PROTECTION” (Bayer Aktiengesellschaft, priority 2018, published 2020).

Experiments:
Type in all cases: in vivo
Phaedon cochleariae = Phaedon cochleariae - spray test; settings: in Brassica rapa, foliar, 168 h, read-out: mortality in %
Protocol: Phaedon cochleariae—Spray Test
(§1) To produce a suitable preparation of active compound, 1 part by weight of active compound is mixed with the stated amount of solvents and is diluted with water, containing an emulsifier concentration of 1000 ppm, to the desired concentration. Further test concentrations are prepared by dilution with emulsifier containing water.
Chinese cabbage (Brassica pekinensis) leaf disks are sprayed with a preparation of the active ingredient of the desired concentration. Once dry, the leaf disks are infested with mustard beetle larvae (Phaedon cochleariae).
After 7 days mortality in % is determined. 100% means all beetle larvae have been killed and 0% means none of the beetle larvae have been killed.

Spodoptera frugiperda = Spodoptera frugiperda - spray test; settings: in Zea mays, 168 h, read-out: mortality in %
Protocol: Spodoptera frugiperda—Spray Test
as §1
Maize (Zea mays) leaf sections are sprayed with a preparation of the active ingredient of the desired concentration. Once dry, the leaf sections are infested with fall armyworm larvae (Spodoptera frugiperda).
After 7 days mortality in % is determined. 100% means all caterpillars have been killed and 0% means none of the caterpillars have been killed.

Myzus persicae = Myzus persicae - oral test; settings: 120 h, read-out: mortality in %
Protocol: To produce a suitable preparation of active compound, 1 part by weight of active compound is mixed with the stated amount of solvent, and the concentrate is diluted with water to the desired concentration. 50 μl compound solution is filled in microtiter plates and 150 μl IPL41 insect medium (33%+15% sugar) is added to obtain a total volume of 200 μl per well. Afterwards the plates are sealed with parafilm through which a mixed population of the green peach aphid (Myzus persicae) can suck on the compound preparation.
(§2) After 5 days mortality in % is determined. 100% means all aphids have been killed and 0% means none of the aphids have been killed.

Aphis gossypii = Aphis gossypii - oral test; settings: 120 h, read-out: mortality in %
Protocol: Solvent: 100 parts by weight acetone
To produce a suitable preparation of active compound, 1 part by weight of active compound is mixed with the stated amount of solvent, and the concentrate is diluted with water to the desired concentration.
50 μl compound solution is filled in microtiter plates and 150 μl IPL41 insect medium (33%+15% sugar) is added to obtain a total volume of 200 μl per well. Afterwards the plates are sealed with parafilm through which a mixed population of the cotton aphid (Aphis gossypii) can suck on the compound preparation.
as §2

Diabrotica balteata = Diabrotica balteata - spray test; settings: 168 h, 160 μg/well, germinated wheat seeds, larvae, after 7 days, read-out: efficacy in %
Protocol: Diabrotica balteata—Spray Test
as §1, with “solvent,” for “solvents”, “and the concentrate” for “and”
Soaked wheat seeds (Triticum aestivum) are placed in a multiple well plate filled with agar and some water and are incubated for 1 day to germinate (5 seeds per well). The germinated wheat seeds are sprayed with a test solution containing the desired concentration of the active ingredient. Afterwards each unit is infected with 10-20 larvae of the banded cucumber beetle (Diabrotica balteata).
After 7 days efficacy in % is determined. 100% means all the seedlings have grown up like in the untreated, uninfected control; 0% means none of the seedlings have grown.

Nezara viridula = Nezara viridula - spray test 1; settings: in Hordeum vulgare, 96 h, read-out: mortality in %
Protocol: Nezara viridula—Spray Test 1
as §1, with “solvent,” for “solvents”, “and the concentrate” for “and”
Barley plants (Hordeum vulgare) infested with larvae of the southern green stink bug (Nezara viridula) are sprayed with a test solution containing the desired concentration of the active ingredient.
After 4 days mortality in % is determined. 100% means all the stink bugs have been killed; 0% means none of the stink bugs have been killed.

Nilaparvata lugens = Nilaparvata lugens - spray test 1; settings: in Oryza sativa, 96 h, read-out: mortality in %, 500 g/ha, rice plants, after 4 days
Protocol: Nilaparvata lugens—Spray Test 1
as §1
Rice plants (Oryza sativa) are sprayed with a preparation of the active ingredient of the desired concentration and the plants are infested with the brown planthopper (Nilaparvata lugens).
After 4 days mortality in % is determined. 100% means all planthoppers have been killed and 0% means none of the planthoppers have been killed.

Culex quinquefasciatus = assay: Culex test (CULXFAS surface treatment & contact assay); settings: 30 minutes exposure, 24 hours after contact, read-out: efficacy (mortality in percent)
Protocol: Culex Test (CULXFAS Surface Treatment & Contact Assay)
Solvent: Acetone+2000 ppm rapeseed oil methyl ester (RME)
(§3) In order to produce a sufficient, active ingredient containing solution it is necessary to solve the test-compound in an acetone/RME solvent mixture. This solution is pipetted onto a glazed tile and after evaporation of the acetone, adult mosquitoes of the species Culex quinquefasciatus (Brown house mosquito) are placed onto the dried surface. The exposure time is 30 minutes.
(§4) Mortality in percent (%) is determined 24 hours after contact to the treated surface. 100% mortality means that all test-insects are dead, whereas 0% means that not a single insect died.

[1] = test system: Aedes aegypti strain MONHEIM; assay: Aedes test (AEDSAE surface treatment & contact assay); settings: 30 minutes exposure, 24 hours after contact, read-out: efficacy (mortality in percent)
Protocol: Aedes Test (AEDSAE Surface Treatment & Contact Assay)
Solvent: Aceton+2000 ppm rapeseed oil methyl ester (RME)
as §3, with “Aedes aegypti strain MONHEIM” for “Culex quinquefasciatus (Brown house mosquito)”
as §4

[2] = test system: Musca domestica strain WHO-N; assay: Musca domestica test (MUSCDO surface treatment & contact assay); settings: 30 minutes exposure, 24 hours after contact, read-out: efficacy (mortality in percent)
Protocol: Musca domestica Test (MUSCDO Surface Treatment & Contact Assay)
(§5) Solvent: Aceton+2000 ppm Rapeseed oil methyl ester (RME)
as §3, with “flies” for “mosquitoes”, “Musca domestica strain WHO-N” for “Culex quinquefasciatus (Brown house mosquito)”
as §4

[3] = test system: Blattella germanica strain PAULINIA; assay: Blattella germanica test (BLTTGE surface treatment & contact assay); settings: surface concentration 20 mg/m^2, glazed tile, 30 minutes exposure, 24 hours after contact, read-out: efficacy (mortality in percent)
Protocol: Blattella germanica Test (BLTTGE Surface Treatment & Contact Assay)
as §5
as §3, with “animals” for “mosquitoes”, “Blattella germanica strain PAULINIA” for “Culex quinquefasciatus (Brown house mosquito)”
as §4

[4] = surface concentration 4 mg/m^2, glazed tile
[5] = surface concentration 20 mg/m^2, glazed tile

CC(c1ncnn1-c1ncccn1)N(CC1CC1)C(=O)c1cc(Br)cc(C(F)(F)F)c1 (centres unmarked) [Compound I-62, 3-bromo-N-(cyclopropylmethyl)-N-[1-(2-pyrimidin-2-yl-1,2,4-triazol-3-yl)ethyl]-5-(trifluoromethyl)benzamide]
90%: mortality at 500 g/ha (Nezara viridula) | mortality at 500 g/ha (Nilaparvata lugens)
100%: mortality at 500 g/ha (Phaedon cochleariae) | mortality at 500 g/ha (Spodoptera frugiperda) | mortality at 20 ppm (Myzus persicae) | mortality at 100 ppm (Aphis gossypii) | pest or weed control at 160 µg/disc, 160 µg/well (Diabrotica balteata)

C[C@H](NC(=O)c1cc(C(F)(F)F)cc(C(F)(F)F)c1)c1ncnn1-c1ncccn1 [Compound I-66, N-[(1S)-1-(2-pyrimidin-2-yl-1,2,4-triazol-3-yl)ethyl]-3,5-bis(trifluoromethyl)benzamide]
100%: mortality at 500 g/ha (Phaedon cochleariae) | mortality at 500 g/ha (Spodoptera frugiperda) | mortality at 20 ppm (Myzus persicae) | mortality at 100 ppm (Aphis gossypii) | pest or weed control at 160 µg/disc, 160 µg/well (Diabrotica balteata) | mortality at 500 g/ha (Nezara viridula) | mortality at 500 g/ha (Nilaparvata lugens)

Cc1nc(C(C)N(CC2CC2)C(=O)c2cc(Cl)cc(C(F)(F)F)c2)n(-c2ncc(Cl)cn2)n1 (centres unmarked) [Compound I-78, 3-chloro-N-[1-[2-(5-chloropyrimidin-2-yl)-5-methyl-1,2,4-triazol-3-yl]ethyl]-N-(cyclopropylmethyl)-5-(trifluoromethyl)benzamide]
100%: mortality at 500 g/ha (Phaedon cochleariae) | mortality at 500 g/ha (Spodoptera frugiperda) | mortality at 20 ppm (Myzus persicae) | mortality at 100 ppm (Aphis gossypii) | pest or weed control at 160 µg/disc, 160 µg/well (Diabrotica balteata) | mortality at 500 g/ha (Nezara viridula) | mortality at 500 g/ha (Nilaparvata lugens)

CC(c1ncnn1-c1ncccn1)N(Cc1ccc(F)cc1)C(=O)c1cc(Cl)cc(C(F)(F)F)c1 (centres unmarked) [Compound I-98]
83%: mortality at 500 g/ha (Spodoptera frugiperda)
100%: mortality at 500 g/ha (Phaedon cochleariae) | mortality at 20 ppm (Myzus persicae) | mortality at 100 ppm (Aphis gossypii) | pest or weed control at 160 µg/disc, 160 µg/well (Diabrotica balteata) | mortality at 500 g/ha (Nezara viridula) | mortality at 500 g/ha (Nilaparvata lugens)

CC(c1ncnn1-c1ncccn1)N(Cc1ccccc1)C(=O)c1cc(Cl)cc(C(F)(F)F)c1 (centres unmarked) [Compound I-99]
90%: mortality at 500 g/ha (Nilaparvata lugens)
100%: mortality at 500 g/ha (Phaedon cochleariae) | mortality at 500 g/ha (Spodoptera frugiperda) | mortality at 20 ppm (Myzus persicae) | mortality at 100 ppm (Aphis gossypii) | pest or weed control at 160 µg/disc, 160 µg/well (Diabrotica balteata) | mortality at 500 g/ha (Nezara viridula)

CC(c1ncnn1-c1ncccn1)N(C)C(=O)c1cc(Cl)cc(C(F)(F)F)c1 (centres unmarked) [Compound I-100, 3-chloro-N-methyl-N-[1-(2-pyrimidin-2-yl-1,2,4-triazol-3-yl)ethyl]-5-(trifluoromethyl)benzamide]
100%: mortality at 500 g/ha (Phaedon cochleariae) | mortality at 500 g/ha (Spodoptera frugiperda) | mortality at 20 ppm (Myzus persicae) | mortality at 100 ppm (Aphis gossypii) | pest or weed control at 160 µg/disc, 160 µg/well (Diabrotica balteata) | mortality at 500 g/ha (Nezara viridula) | mortality at 500 g/ha (Nilaparvata lugens)

CC(c1ncnn1-c1ncccc1F)N(CC1CC1)C(=O)c1cc(Cl)cc(C(F)(F)F)c1 (centres unmarked) [Compound I-106]
100%: mortality at 500 g/ha (Phaedon cochleariae) | mortality at 500 g/ha (Spodoptera frugiperda) | mortality at 20 ppm (Myzus persicae) | mortality at 100 ppm (Aphis gossypii) | pest or weed control at 160 µg/disc, 160 µg/well (Diabrotica balteata) | mortality at 500 g/ha (Nezara viridula) | mortality at 500 g/ha (Nilaparvata lugens)

CC(NC(=O)c1cncc(C(F)(F)F)c1)c1ncnn1-c1ncccn1 (centres unmarked) [Compound I-115]
83%: mortality at 500 g/ha (Spodoptera frugiperda)
100%: mortality at 500 g/ha (Phaedon cochleariae) | mortality at 20 ppm (Myzus persicae) | mortality at 100 ppm (Aphis gossypii) | pest or weed control at 160 µg/disc, 160 µg/well (Diabrotica balteata) | mortality at 500 g/ha (Nezara viridula) | mortality at 500 g/ha (Nilaparvata lugens)

C[C@H](NC(=O)c1cc(Cl)cc(C(F)(F)F)c1)c1ncnn1-c1ccccn1 [Compound I-117, 3-chloro-N-[(1S)-1-[2-(2-pyridyl)-1,2,4-triazol-3-yl]ethyl]-5-(trifluoromethyl)benzamide]
100%: mortality at 500 g/ha (Phaedon cochleariae) | mortality at 500 g/ha (Spodoptera frugiperda) | mortality at 20 ppm (Myzus persicae) | mortality at 100 ppm (Aphis gossypii) | pest or weed control at 160 µg/disc, 160 µg/well (Diabrotica balteata) | mortality at 500 g/ha (Nezara viridula) | mortality at 500 g/ha (Nilaparvata lugens)

C[C@H](NC(=O)c1cc(Cl)cc(C(F)(F)F)c1)c1ncnn1-c1ccc(Cl)cn1 [Compound I-120, 3-chloro-N-[(1S)-1-[2-(5-chloro-2-pyridyl)-1,2,4-triazol-3-yl]ethyl]-5-(trifluoromethyl)benzamide]
100%: mortality at 500 g/ha (Phaedon cochleariae) | mortality at 500 g/ha (Spodoptera frugiperda) | mortality at 20 ppm (Myzus persicae) | mortality at 100 ppm (Aphis gossypii) | pest or weed control at 160 µg/disc, 160 µg/well (Diabrotica balteata) | mortality at 500 g/ha (Nezara viridula)
80 to 100%: mortality at 4 mg/m2 (Culex quinquefasciatus; [4]) | mortality at 20 mg/m2 (Culex quinquefasciatus; [5]) | mortality at 4 mg/m2 [1, 4] | mortality at 20 mg/m2 [1, 5] | mortality at 4 mg/m2 [2, 4] | mortality at 20 mg/m2 [2, 5] | mortality at 20 mg/m2 [3]

CC(c1ncnn1-c1ncccn1)N(CC(F)F)C(=O)c1cc(Cl)cc(OC(F)(F)F)c1 (centres unmarked) [Compound I-121, 3-chloro-N-(2,2-difluoroethyl)-N-[1-(2-pyrimidin-2-yl-1,2,4-triazol-3-yl)ethyl]-5-(trifluoromethoxy)benzamide]
100%: mortality at 500 g/ha (Phaedon cochleariae) | mortality at 500 g/ha (Spodoptera frugiperda) | mortality at 20 ppm (Myzus persicae) | mortality at 100 ppm (Aphis gossypii) | pest or weed control at 160 µg/disc, 160 µg/well (Diabrotica balteata) | mortality at 500 g/ha (Nezara viridula) | mortality at 500 g/ha (Nilaparvata lugens)

CC(c1ncnn1-c1ncccn1)N(CC(F)F)C(=O)c1cccc(SC(F)(F)F)c1 (centres unmarked) [Compound I-122]
100%: mortality at 500 g/ha (Phaedon cochleariae) | mortality at 20 ppm (Myzus persicae) | mortality at 100 ppm (Aphis gossypii) | pest or weed control at 160 µg/disc, 160 µg/well (Diabrotica balteata) | mortality at 500 g/ha (Nezara viridula) | mortality at 500 g/ha (Nilaparvata lugens)
